According to ChEMBL document CHEMBL1144057, “Guiaflavine, a new bisindole quaternary alkaloid from the stem bark of Strychnos guianensis” (J Nat Prod, 1999):

Tested on: Mus musculus
Assay: Toxicity in ip dosed NMRI mouse
Assay type: organism-based
Conditions: in vivo

## CCc1c[n+]2c(cc1C1=CN3c4ccccc4[C@@]45CC[N+]6(C)CC7=CCO[C@@H]1[C@@H]([C@H]34)[C@H]7C[C@@H]56)-c1[nH]c3cccc(OC)c3c1CC2.[Cl-].[Cl-] (stereo partly specified) [GUIAFLAVINE]
  LD100: 100 mg/kg
